A short description of data set [1]: Photophysical characterization (absorbance, extinction coefficient, emission, quantum yield). The following applies: for fluorescence, in words: aqueous / phosphate buffer. The data set is classed as physicochemical. Here is the method: Extinction coefficients were the average of three independent determinations of three different readings from the lowest energy transition at three concentrations. Quantum yields are the average of three determinations of both quantum yield standard 9,10-diphenylanthracene and the synthesized coumarines at 340 nm unless otherwise indicated.
All spectra were recorded in 100 mM sodium phosphate (pH 7.4) unless otherwise indicated. Recorded λmax is that of the longest wavelength transition. Extinction coefficients were reported as the average of at least three independent preparations of the probes. Fluorescence measurements were taken on a Jobin Yvon Fluorolog fluorescence spectrofluorometer (slits 3, HV 750) in 100 mM sodium phosphate pH 7.4 buffer unless otherwise indicated. Quantum yields were measured relative to 9,10 diphenylanthracene in EtOH.4 Reported quantum efficiencies are the average of at least three independent preparations of the probes.
The extinction coefficient ε relates the absorbance of a compound to its concentration as expressed in Beer's law (A=εbc where A is absorbance, b is pathlength, and c is concentration). Extinction coefficients were the average of three independent determinations of three different readings of absorbance from the lowest energy transition at three concentrations. The quantum yield of fluorescence is the fraction of absorbed photons that lead to fluorescence; the number of photons fluoresced divided by the number of photons absorbed. To obtain the quantum yields of the synthesized coumarines their efficiency was compared to standard 9,10-diphenylanthracene at 340 nm in three different determinations. The effect of different solvents on the fluorescence of the compounds was also tested. The compounds were dissolved in methanol, chloroform and toluene and their emissions spectrum was taken.

A further data set addresses T1, MAO-A (Homo sapiens, UniProt P21397).
T1 sequence (P21397 1-527): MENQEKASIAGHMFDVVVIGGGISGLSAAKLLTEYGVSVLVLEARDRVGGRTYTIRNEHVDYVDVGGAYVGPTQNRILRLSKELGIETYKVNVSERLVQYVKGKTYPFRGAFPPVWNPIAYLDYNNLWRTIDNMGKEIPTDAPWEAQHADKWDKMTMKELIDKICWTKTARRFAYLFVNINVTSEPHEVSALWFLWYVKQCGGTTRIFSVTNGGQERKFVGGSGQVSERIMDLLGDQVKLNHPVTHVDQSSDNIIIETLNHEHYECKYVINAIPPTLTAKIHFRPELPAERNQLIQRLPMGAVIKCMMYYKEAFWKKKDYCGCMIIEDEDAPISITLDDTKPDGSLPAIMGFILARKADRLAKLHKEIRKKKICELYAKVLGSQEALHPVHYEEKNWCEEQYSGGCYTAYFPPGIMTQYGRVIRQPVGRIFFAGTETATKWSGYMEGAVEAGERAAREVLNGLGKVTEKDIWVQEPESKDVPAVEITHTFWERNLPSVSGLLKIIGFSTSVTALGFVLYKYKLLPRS
In words: Monoamine oxidase A substrate assay, human placenta mitochondria, fluorescence detection of indole product.

Another data set has as its target T2, MAO-B (Bos taurus, UniProt P56560).
T2 sequence (P56560 1-520): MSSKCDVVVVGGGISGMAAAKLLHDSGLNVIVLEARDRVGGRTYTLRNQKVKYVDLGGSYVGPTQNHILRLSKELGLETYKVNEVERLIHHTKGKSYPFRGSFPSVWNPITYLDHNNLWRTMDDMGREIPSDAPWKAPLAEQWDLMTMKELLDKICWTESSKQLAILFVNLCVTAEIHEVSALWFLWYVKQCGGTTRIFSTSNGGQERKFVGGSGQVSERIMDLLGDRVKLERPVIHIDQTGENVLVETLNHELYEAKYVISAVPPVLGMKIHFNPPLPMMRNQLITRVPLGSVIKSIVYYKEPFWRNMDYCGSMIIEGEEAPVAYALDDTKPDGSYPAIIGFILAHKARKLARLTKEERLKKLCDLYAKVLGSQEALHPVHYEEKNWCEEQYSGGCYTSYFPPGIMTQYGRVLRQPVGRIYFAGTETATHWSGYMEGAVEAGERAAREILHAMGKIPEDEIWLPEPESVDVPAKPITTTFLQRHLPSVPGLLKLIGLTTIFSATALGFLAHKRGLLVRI
In words: Monoamine oxidase B substrate assay, beef liver mitochondria, fluorescence detection of indole product.

Data set [2] in a line: Solubility in aqueous solution. It counts as physicochemical. The note with it: in words.
Another data set can be described thus: Chemical stability. The note with it: in words.
Data set [3] in a line: Fluorescence switch / apparent fluorescence increase, product versus substrate. The data set is classed as physicochemical. Here is the method: Apparent fluorescence increase was calculated by comparing the slopes (arbitrary fluorescence units/μM) of standard curves of chemically synthesized product and substrate concentration versus fluorescence intensity. Calculation of the apparent fluorescence increase is shown below for probe 9, which has a 21000% apparent fluorescence increase in emission intensity at λem=524 nm. The constants fP and fS were calculated from the slope of a line of fluorescence intensity versus concentration of chemically synthesized product indole 10 and substrate 9, respectively. These slopes were obtained from calibration curves of at least five concentrations of 9 and 10 in phosphate buffer (pH 7.4). The preparations of the compounds in mitochondrial assay buffer have negligible effects on fS and fP.

Setting [4] is: 24-hour incubation, room temperature, pH 7.4.

Results on seven molecules are retold here after patent US20080194522A1, “Development of Fluorogenic Substrates For Monoamine Oxidases (Mao-A and Mao-B)” (priority 2004, published 2008).

Entries after “also recorded” stand apart in the source; their conditions may differ.

Molecule `NCCc1cc2oc(=O)ccc2cc1N` [III] returned a Φ in data set [1] (Table 2, in water, relative to 9,10-diphenyl anthracene (excited at 340 nm)) of 0.0017. Further, in data set [1] (Table 2 diamines, in water), the “ε (M^−1cm^−1)” value is given as 2,000 ± 100 M^−1cm^−1. Moreover, the “λmax (nm)” value in data set [1] (Table 2 diamines, in water) turned out to be 352 nm. Also, the “enzyme-catalyzed conversion of diamine to indole” value at MAO-A (setting [4]) and on MAO-B (setting [4]) was “significant conversion” throughout. The “kcx” value at MAO-A (Table 6, Monoamine Oxidase A) came out at 0.475 min⁻¹; at MAO-B (Table 6, Monoamine Oxidase B), 20.62 min⁻¹. The “substrate quality for MAO-A” value on MAO-A (in words) is “good substrate for MAO-A”. Moreover, at MAO-B (in words), the “substrate quality for MAO-B” value was “good substrate for MAO-B”.

With `CCN(CC)c1ccc2c(C)c(-c3ccc(N)c(CCO)c3)c(=O)oc2c1` [Probe 16, 3-[4-Amino-3-(2-hydroxy-ethyl)-phenyl]-7-diethylamino-4-methyl-chromen-2-one], the “solubility in aqueous solution” value in data set [2] is given as “reasonably soluble”. Besides, the “fluorescence, in words” value in data set [1] is given as “much less fluorescent than Probe 17”. Further, the chemical stability result in the data set “Chemical stability” is “chemically and photo-physically stable”.

As to `CCN(CC)c1ccc2c(C)c(-c3ccc4[nH]ccc4c3)c(=O)oc2c1` [Probe 17, 7-Diethylamino-3-(1H-indol-5-yl)-4-methyl-chromen-2-one], in data set [2], the “solubility in aqueous solution” value is listed as “reasonably soluble”. Besides, in data set [1], the emission wavelength is recorded as 475 nm and the “fluorescence, in words” value is reported as “highly fluorescent”. Besides, the chemical stability entry in the data set “Chemical stability” is “chemically and photo-physically stable”. For the same molecule, the “fluorescence emission intensity increase, indole/pyrrolocoumarin versus aniline/aminocoumarin” value in data set [3] is 12 fold.

Consider `Cc1c(-c2ccc(N)c(CCO)c2)c(=O)oc2c3c4c(cc12)CCCN4CCC3` [Probe 23, 9-[4-Amino-3-(2-hydroxy-ethyl)-phenyl]-8-methyl-2,3,5,6-tetrahydro-1H, 4H-11-oxa-3a-aza-benzo[de]anthracen-10-one], for which, in data set [3], the “fluorescence emission intensity increase, indole/pyrrolocoumarin versus aniline/aminocoumarin” value is reported as 6 fold.

On to `Cc1cc(=O)oc2ccc(N)c(CCO)c12` [Probe 57, 6-Amino-5-(2-hydroxy-ethyl)-4-methyl-chromen-2-one], for which, in data set [2], the “solubility in aqueous solution” value is recorded as “very soluble”. Besides, in data set [1], the “fluorescence, in words” value is listed as “essentially non-fluorescent; also recorded: very weakly fluorescent”. The chemical stability entry in the data set “Chemical stability” is “chemically and photo-physically stable”.

In the case of `O=c1ccc2cc3[nH]ccc3cc2o1` [Probe 59, 1H-Pyrano[2,3-f]indol-6-one], in data set [1], the “fluorescence, in words” value was “quite fluorescent”. The “fluorescence emission intensity increase, indole/pyrrolocoumarin versus aniline/aminocoumarin” value in data set [3] was “around 2000 fold”.

For `CCN(CC)c1ccc2c(C)c(-c3ccc(N)c(CCN)c3)c(=O)oc2c1` [Probe 114, 3-[4-Amino-3-(2-amino-ethyl)-phenyl]-7-diethylamino-4-methyl-chromen-2-one], the “solubility in aqueous solution” value in data set [2] is on record as “water solubility”. Moreover, the chemical stability result in the data set “Chemical stability” was “desired chemical stability”.
